The structures appear in SMILES notation.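 These data come from cells grown in 96-well plates and exposed to compound for 48 hours at five concentrations. The concentration for 50% growth inhibition is given as GI50.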 Calls of active or inactive are those of the source. Rule as the data show it: active = GI50 up to about 1.1 µM and inactive = higher.

Results on seven compounds are retold here after ChEMBL document CHEMBL1201862, “PubChem BioAssay data set” (2004).

Test in all cases: NCI tumour cell line growth inhibition, 48 h
Experiment [1] deals with HT-29.
For experiment [2], the system named is Hs-578T.
In experiment [3] the test system is DU-145.
In experiment [4] the test system is M14.
For experiment [5], the system named is SK-OV-3.
The subject of experiment [6] is NCI-H522.
The test system of experiment [7] is KM12.
Experiment [8] has as its system RPMI-8226.
The subject of experiment [9] is UO-31.
Experiment [10] concerns U-251.
Experiment [11] relates to OVCAR-4.
For experiment [12], the system named is OVCAR-3.
Experiment [13] deals with 786-0.
Experiment [14] has as its system MDA-MB-231.
Experiment [15] deals with ACHN.
In experiment [16] the test system is EKVX.
Experiment [17] has as its system NCI-H226.
Experiment [18] has as its system LOX IMVI.
For experiment [19], the system named is MDA-N.
The subject of experiment [20] is SK-MEL-28.

Take `CSc1cc(-c2ccccn2)nc(-c2ccccn2)c1`: the GI50 in experiment [1] was 0.149 µM (active); in [2], 3.1 µM (inactive); in experiment [3] it was 0.097 µM (active); in experiment [4] it was 0.0695 µM (active); in experiment [5] it was 0.255 µM (active); in experiment [6] it was 0.385 µM (active). Further, the GI50 in [7] is 0.124 µM (active); in experiment [8], 0.383 µM (active); in experiment [9] it was 0.0607 µM (active); in experiment [10], 0.0766 µM (active); in experiment [11], 0.0828 µM (active); in experiment [12] it was 0.0279 µM (active). Further, the GI50 is 0.0546 µM (active) in experiment [13]; 0.494 µM (active) in [14]; 0.0334 µM (active) in [15]; 0.0906 µM (active) in experiment [16]; 0.0395 µM (active) in [17]; 0.043 µM (active) in experiment [18]. Also, the figures for the GI50 in experiment [19] and in [20] were 0.452 µM (active) and 0.0736 µM (active), respectively.

Consider `N#Cc1nc(-c2cccs2)oc1N`, for which the GI50 is > 100 µM (inactive) in experiment [1]; > 100 µM (inactive) in experiment [2]; > 100 µM (inactive) in experiment [3]; > 100 µM (inactive) in [4]; > 100 µM (inactive) in [5]; 18.5 µM (inactive) in [6]. For the same compound, the GI50 in experiment [7] was > 100 µM (inactive); in experiment [8], > 100 µM (inactive); in experiment [9], 62.4 µM (inactive); in experiment [10], > 100 µM (inactive); in experiment [11] it was > 100 µM (inactive); in [12], > 100 µM (inactive). Besides, the GI50 was > 100 µM (inactive) in [13]; 51.3 µM (inactive) in experiment [14]; > 100 µM (inactive) in [15]; 75 µM (inactive) in experiment [16]; > 100 µM (inactive) in experiment [17]; 63.5 µM (inactive) in [18]. In addition, the GI50 in experiment [19] and in experiment [20] was > 100 µM (inactive) each time.

Take `COc1ccc(C2SCC(=O)N2NC(=O)C(C)Oc2ccccc2C)cc1` (stereo not given): the GI50 was 95.9 µM (inactive) in [1]; > 100 µM (inactive) in experiment [2]; > 100 µM (inactive) in [3]; > 100 µM (inactive) in experiment [4]; > 100 µM (inactive) in experiment [5]; 56.6 µM (inactive) in experiment [6]. The GI50 in [7] is > 100 µM (inactive); in experiment [8], 41.5 µM (inactive); in experiment [9], 72.1 µM (inactive); in [10] it was 85.7 µM (inactive); in experiment [11], > 100 µM (inactive); in experiment [12] it was > 100 µM (inactive). For the same compound, the GI50 in [13] is > 100 µM (inactive); in [14], 47.5 µM (inactive); in experiment [15] it was 68.5 µM (inactive); in experiment [16], > 100 µM (inactive); in experiment [17], > 100 µM (inactive); in experiment [18] it was 60.1 µM (inactive). The values for the GI50 in experiment [19] and in [20] were 86.7 µM (inactive) and > 100 µM (inactive), respectively.

As for `CC(C)[C@H]1NC(=O)[C@H]2N=C(O[C@@H]2C)[C@@H]2CCCN2C(=O)[C@H](Cc2ccccc2)NC(=O)[C@@H]2COC(=N2)[C@@H](Cc2ccccc2)NC(=O)[C@@H]2COC1=N2`, the GI50 in [1], in experiment [2], in experiment [3], in [4], in [5] and in experiment [6] was > 100 µM (inactive) each time. For the same compound, the GI50 in experiment [7], in [8], in experiment [9], in experiment [10], in experiment [11] and in [12] was > 100 µM (inactive) in each case. The GI50 in [13], in experiment [14], in [15], in [16], in [17] and in [18] was > 100 µM (inactive) throughout. The GI50 in experiment [19] and in experiment [20] was > 100 µM (inactive) each time.

Take `O=c1c2cc(I)ccc2nc(SCc2nncs2)n1Cc1ccccc1`: the GI50 is 31.8 µM (inactive) in experiment [1]; 16.3 µM (inactive) in experiment [2]; 23.1 µM (inactive) in [3]; 9.06 µM (inactive) in experiment [4]; 43.7 µM (inactive) in [5]; 4.78 µM (inactive) in experiment [6]. Also, the GI50 is 11.8 µM (inactive) in experiment [7]; 6.76 µM (inactive) in experiment [8]; 1.17 µM (inactive) in experiment [9]; 16.9 µM (inactive) in [10]; 12.6 µM (inactive) in [11]; 12.3 µM (inactive) in experiment [12]. Besides, the GI50 in [13] is 15 µM (inactive); in experiment [14], 16.8 µM (inactive); in experiment [15], 9.33 µM (inactive); in experiment [16], 7 µM (inactive); in experiment [17] it was 23.8 µM (inactive); in experiment [18], 29.5 µM (inactive). Also, the values for the GI50 in experiment [19] and in experiment [20] were 23 µM (inactive) and 90.2 µM (inactive), respectively.

`CC1(C)CC(=O)C(CCC(=O)/C=C/c2ccccc2)C(=O)C1`: the GI50 in experiment [1], in [2], in [3], in experiment [4], in experiment [5] and in experiment [6] was > 100 µM (inactive) throughout. Besides, the GI50 in experiment [7] was > 100 µM (inactive); in experiment [8], > 100 µM (inactive); in experiment [9] it was > 61.4 µM (inactive); in experiment [10] it was > 100 µM (inactive); in experiment [11], > 100 µM (inactive); in experiment [12], > 100 µM (inactive). The GI50 is > 100 µM (inactive) in experiment [13]; > 100 µM (inactive) in [14]; 98.9 µM (inactive) in experiment [15]; > 100 µM (inactive) in experiment [16]; > 100 µM (inactive) in experiment [17]; > 100 µM (inactive) in [18]. For the same compound, the GI50 in experiment [19] and in experiment [20] was > 100 µM (inactive) each time.

For the compound `O=C(CCl)Nc1ccc(-c2nc3ccccc3s2)cc1`, the GI50 in [1] was 2.39 µM (inactive); in experiment [2], 5.96 µM (inactive); in [3], 10.4 µM (inactive); in experiment [4], 1.97 µM (inactive); in experiment [5] it was 4.78 µM (inactive); in experiment [6], 1.77 µM (inactive). Moreover, the GI50 in [7] was 3.3 µM (inactive); in experiment [8] it was 2.26 µM (inactive); in experiment [9] it was 13 µM (inactive); in experiment [10], 1.64 µM (inactive); in experiment [11], 3.37 µM (inactive); in experiment [12], 1.82 µM (inactive). Besides, the GI50 is 2 µM (inactive) in experiment [13]; 3.07 µM (inactive) in experiment [14]; 5.28 µM (inactive) in [15]; 6.97 µM (inactive) in experiment [16]; 1.43 µM (inactive) in experiment [17]; 0.847 µM (active) in experiment [18]. Moreover, the results for the GI50 in experiment [19] and in [20] were 2.49 µM (inactive) and 4.12 µM (inactive), respectively.
